Among the data in patent US10723699B2 (Hyundai Pharm Co., Ltd., priority 2015, dated 2020) are EC50 values, retold here.

This assay deals with T1, G protein-coupled receptor 119 (GPR-119) (Mesocricetus auratus, UniProt A0A1U8CD06).
T1 construct: hamster-derived β-cells containing G protein-coupled receptor 119 (GPR-119), HIT-T15 cells; host or cells: HIT-T15 (hamster pancreatic β-cells)
T1 sequence (A0A1U8CD06 1-334): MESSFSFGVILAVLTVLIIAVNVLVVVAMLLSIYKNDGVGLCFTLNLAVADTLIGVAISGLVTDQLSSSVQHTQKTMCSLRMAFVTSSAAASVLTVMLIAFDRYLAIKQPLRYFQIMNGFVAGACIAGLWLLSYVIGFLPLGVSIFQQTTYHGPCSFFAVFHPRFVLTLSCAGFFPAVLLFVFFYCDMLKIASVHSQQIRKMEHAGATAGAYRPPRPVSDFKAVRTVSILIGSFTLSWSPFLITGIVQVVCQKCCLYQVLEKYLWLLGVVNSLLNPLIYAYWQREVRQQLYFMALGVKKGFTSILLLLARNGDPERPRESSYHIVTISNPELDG
Put plainly: cAMP activity in HIT-T15 cells (cAMP dynamic kit, FRET). The assay is classed as cell-based, hamster. As to the method:
To check whether the cyclohexene derivatives according to the present invention activate cyclic adenosine monophosphate (cAMP), experiments were carried out, as follows.
The HIT-T15 cells were plated on a 96-well plate at 60,000 cells per well. On the next day of plating, the cells were treated with a varying concentration of each of the example compounds according to the present invention, and incubated at 37° C. for an hour. In this case, each of the treated compounds was used at six concentrations, ranging from 0.0032 to 10 μM, to treat the cells.
The cyclic adenosine monophosphate (cAMP) activity was measured according to the manufacturer's instruction using a cAMP dynamic kit commercially available from Cis Bio Inc. (Bedford, Mass.). The cells were lysed, and a level of cAMP was determined by a competitive immunoassay using D2-labeled cAMP and a cryptate-labeled anti-cAMP antibody. Fluorescence was read in Flex Station (Molecular Devices). […] Unlabeled cAMP in the cell lysate competed with the D2-labeled cAMP against the cryptate-labeled antibody. Since a decrease in the measured intensity of the FRET signals represents a level of cAMP in the cells, the cAMP activities of the compounds are calculated as a change in FRET signals by adjusting an amount of dimethyl sulfoxide (DMSO).

Where [1] appears, read: 1 hour at 37° C., six concentrations 0.0032 to 10 μM, read-out: EC50.

Read-outs that look alike come from different tables or passages of the source. Some results are limits rather than exact numbers.

One may read the EC50 as the concentration that produces a half-maximal response. As to `CCc1cnc(N2CCC(COc3ccc(C4=CCC(C(=O)N5CCC(CO)CC5)CC4)c(F)c3)CC2)nc1` (stereo not drawn) [Example 432, (4-(4-((1-(5-ethylpyrimidin-2-yl)piperidin-4-yl)methoxy)-2-fluorophenyl)cyclohex-3-enyl)(4-(hydroxymethyl)piperidin-1-yl)methanone], the EC50 runs as follows: under setting [1], 29 nM; (Table 2, read-out: EC50 value) at most 50 nM. Consider `CC(C)c1noc(N2CCC(COc3ccc(C4=CCC(C(=O)N5CCN(C6CC6)CC5)CC4)cc3F)CC2)n1` (stereo not drawn) [Example 348, (4-cyclopropylpiperazin-1-yl)(4-(3-fluoro-4-((1-(3-isopropyl-1,2,4-oxadiazol-5-yl)piperidin-4-yl)methoxy)phenyl)cyclohex-3-enyl)methanone], for which the EC50 was 14 nM under setting [1] and at most 50 nM (Table 2, read-out: EC50 value). The corresponding values for `CCc1cnc(N2CCC(COc3ccc(C4=CCC(C(=O)N5CCN(C(=O)NC(C)C)CC5)CC4)cc3)CC2)nc1` (stereo not drawn) [Example 413, 4-(4-(4-((1-(5-ethylpyrimidin-2-yl)piperidin-4-yl)methoxy)phenyl)cyclohex-3-enecarbonyl)-N-isopropylpiperazine-1-carboxamide] are 25 nM and at most 50 nM. `CCc1cnc(N2CCC(COc3ccc(C4=CCC(C(=O)N5CCC(F)(F)C5)CC4)cc3F)CC2)nc1` (stereo not drawn) [Example 459, (3,3-difluoropyrrolidin-1-yl)(4-(4-((1-(5-ethylpyrimidin-2-yl)piperidin-4-yl)methoxy)-3-fluorophenyl)cyclohex-3-enyl)methanone]: the EC50 is 36 nM under setting [1] and at most 50 nM (Table 2, read-out: EC50 value). For the compound `CCc1cnc(N2CCC(COc3ccc(C4=CCC(C(=O)NC5CCCCC5)CC4)cc3F)CC2)nc1` (stereo not drawn) [Example 305, N-cyclohexyl-4-(4-((1-(5-ethylpyrimidin-2-yl)piperidin-4-yl)methoxy)-3-fluorophenyl)cyclohex-3-enecarboxamide], the EC50 is, setting by setting: under setting [1], 24 nM; (Table 2, read-out: EC50 value) at most 50 nM.

As to `CC(C)(C)OC(=O)N1CCC(COc2ccc(C3=CCC(C(=O)N4CCCC4)CC3)nc2)CC1` (stereo not drawn) [Example 312, tert-butyl 4-((6-(4-(pyrrolidine-1-carbonyl)cyclohex-1-enyl)pyridin-3-yloxy)methyl)piperidine-1-carboxylate], under setting [1], the EC50 is 120 nM.

Consider `CCc1cnc(N2CCC(COc3ccc(C4=CCC(C(=O)N5CCC(C#N)CC5)CC4)c(F)c3)CC2)nc1` (stereo not drawn) [Example 424, 1-(4-(4-((1-(5-ethylpyrimidin-2-yl)piperidin-4-yl)methoxy)-2-fluorophenyl)cyclohex-3-enecarbonyl)piperidine-4-carbonitrile], for which the half-maximal effective concentration (EC50) by setting is: under setting [1], 21 nM; (Table 2, read-out: EC50 value) at most 50 nM. The corresponding values for `CC(C)c1noc(N2CCC(COc3ccc(C4=CCC(C(=O)N5CCC(C#N)CC5)CC4)cn3)CC2)n1` (stereo not drawn) [Example 338, 1-(4-(6-((1-(3-isopropyl-1,2,4-oxadiazol-5-yl)piperidin-4-yl)methoxy)pyridin-3-yl)cyclohex-3-enecarbonyl)piperidine-4-carbonitrile] are 40 nM and at most 50 nM. For `CCc1cnc(N2CCC(COc3ccc(C4=CCC(C(=O)N5CCOCC5)CC4)cc3C)CC2)nc1` (stereo not drawn) [Example 417, (4-(4-((1-(5-ethylpyrimidin-2-yl)piperidin-4-yl)methoxy)-3-methylphenyl)cyclohex-3-enyl)(morpholino)methanone] the same measures were 50 nM and at most 50 nM. The corresponding values for `CCC(F)(F)C(=O)N1CCC(COc2ccc(C3=CCC(C(=O)N4CCCC4)CC3)cc2F)CC1` (stereo not drawn) [Example 436, 2,2-difluoro-1-(4-((2-fluoro-4-(4-(pyrrolidine-1-carbonyl)cyclohex-1-enyl)phenoxy)methyl)piperidin-1-yl)butan-1-one] are 9.8 nM and at most 50 nM. Consider `CCc1cnc(N2CCC(COc3ccc(C4=CCC(C(=O)N5CCSCC5)CC4)cc3C)CC2)nc1` (stereo not drawn) [Example 418, (4-(4-((1-(5-ethylpyrimidin-2-yl)piperidin-4-yl)methoxy)-3-methylphenyl)cyclohex-3-enyl)(thiomorpholino)methanone], for which the half-maximal effective concentration (EC50) is 35 nM under setting [1] and at most 50 nM (Table 2, read-out: EC50 value).
